From article PMC5489165, “Identification of benzazole compounds that induce HIV-1 transcription” (PLoS ONE, 2017)

Tests used:
HIV-1 RNA in U1 cells = assay: HIV-1 transcription in U1 cells (qRT-PCR); type: cell-based; conditions: 30 μM, 24 h, qRT-PCR (Fig 3)
Protocol: ACH-2 cells were maintained in RPMI-1640 medium without phenol red and with 10% FBS at 37°C in a 5% CO2 atmosphere. Cells were plated at 5000/well in 96-well round-bottom plated and test compounds were added in a final concentration of 0.5% DMSO, in duplicate. Cells were incubated for 24 h at 37°C, 5% CO2, then pelleted at 2000 × g for 5 min followed by washing in 0.1 ml PBS. RNA was isolated using Invitrogen PureLink 96 RNA Purification Kit with vacuum manifold per the manufacturer’s instructions, including DNase I treatment. HIV-1 transcripts were detected using TaqMan® RNA-to-CT™ 1-step kit (Applied Biosystems, Foster City, CA) and primers/probe specific to gag (SK38 forward: 5ʹ-[…]-3ʹ; SK39 reverse: 5ʹ-[…]-3ʹ; SK19 probe: 5ʹ-6FAM […] TAMRA-3ʹ) or tat (forward: 5ʹ-[…]-3ʹ; reverse: 5ʹ-[…]-3ʹ; probe: 5ʹ-6FAM […]-3ʹ). GAPDH RNA was monitored in all assays as an endogenous control for selectivity using a pre-developed TaqMan assay reagent (Applied Biosystems, Foster City, CA). RNA was quantified on an Applied Biosystems 7900HT. PCR replicates were performed for each biological replicate. Viral RNA expression was normalized to GAPDH RNA and data are expressed as the change from vehicle-only control wells.
Fig 3 Compounds 1 and 2 induce HIV-1 transcription in ACH-2 and U1. […] RNA was prepared and HIV expression was monitored by qRT-PCR. […]

[1] = tested on: HIV-1 Gag (p24) in ACH-2 cells; assay: Intracellular staining for HIV Gag in ACH-2 cells (flow cytometry); type: cell-based; conditions: for Intracellular Gag, percentage of positive cells: 16 h, 30 μM Cmpd 1 or Cmpd 2, 10 μM SAHA, 1 mM JQ1 or 10 ng/ml PMA, single experiment (Fig 4A)
Protocol: ACH-2 cells were treated as indicated and HIV-1 expression was monitored by intracellular staining for p24. Approximately, 1 × 10^6 cells were collected and washed in PBS before fixing by resuspending in 100 μl of BD Cytofix/Cytoperm (BD Biosciences, San Jose, CA) at 4°C for at least 20 min. Cells were then harvested by centrifugation and resuspended in 100 μl BD PermWash (50 mM NH4Cl, 5 mM EDTA, 0.1% saponin, 0.5% BSA, PBS and 1 mg/ml of anti-HIV-Gag PE (Clone KC57, Beckman Coulter, Brea CA). Cells were stained for 30 min, washed with the PermWash, and resuspended in FACS buffer (2 mM EDTA, 0.5% BSA, 1% paraformaldehyde in PBS). Cells were analyzed by flow cytometry using a FACSCalibur instrument (BD Biosciences). Flow cytometry was performed at the Boston University School of Medicine flow cytometry core.
Fig 4 Induction of HIV-1 expressing cells following treatment with latency reversing agents. ACH-2 cells were not treated or treated with a final concentration of 30 μM Cmpd 1 or Cmpd 2, 10 μM SAHA, 1 mM JQ1 or 10 ng/ml PMA for 16 h. Cells were stained using anti-HIV-Gag-PE and analyzed by flow cytometry. Numbers within the profiles represent the percentage of positive cells. These profiles are from a single experiment. B) Data from four independent experiments. Y-axis is mean of % p24 positive cells. * Cmpd 1 p-value […] compared to other treatments using a two-tailed t-test. TEXT PRINTED IN THE PICTURE: (A) Cmpd 1: Intracellular Gag: 65.6% | (A) Cmpd 2: Intracellular Gag: 33.9% | (A) SAHA: Intracellular Gag: 23.0% | (A) JQ1: Intracellular Gag: 16.7% | (A) PMA: Intracellular Gag: 94.2%

Compound | Induction of HIV-1 transcription in U1 cells (in words) (HIV-1 RNA in U1 cells) | Intracellular Gag, percentage of positive cells [1] [%] | Fold more ACH-2 cells induced than with SAHA or JQ1 ([1]; SAHA or JQ1 used at active concentrations) | ACH-2 cells in which HIV-1 expression was induced ([1]; text statement (Fig 4))
Nc1ccc2[nH]c(-c3ccc(-c4nc5cc(N)ccc5o4)cc3)nc2c1 [Compound 1, 2-(4-(5-amino-1H-benzimidazol-2-yl)phenyl)benzoxazol-5-amine] | induced HIV-1 transcription | 65.6 | approximately 2 fold | over 70%
Nc1ccc2[nH]c(-c3ccc(-c4nc5ccc(N)cc5o4)cc3)nc2c1 [Compound 2] | induced HIV-1 transcription | 33.9 |  | 
